This passage reports Kd results from patent US9164109B2, “Use of probes for unbound metabolites” (priority 2006, dated 2015).

The data set addresses T1, HSA (Homo sapiens, UniProt P02768).
T1 construct: from tissue; host or cells: blood plasma of healthy adult donors, diluted to 1%
The data set can be described thus: Equilibrium-binding model of UCB and HSA. The following applies: value used to calculate model [UCBf], [HSA]=6.5 μM, FIG. 2. As for the experimental part:
Investigations of the effects of FFA on our UCB probes are necessary because the probes are constructed from FABP mutants and FFA are abundant in plasma. Interference testing of every possible component of plasma, however, is not feasible. Therefore UCBf was measured in samples of diluted plasma, from 6 healthy adult donors, titrated with UCB. Because the [UCBf] is determined by the UCB:HSA ratio, the [HSA] of each plasma sample was measured using a Bromcresol Green Albumin Determination Kit from Sigma-Aldrich. HSA concentrations were similar for all samples and ranged from 620 to 680 μM. Plasma [FFAu] was measured with ADIFAB2 and ranged from 1.0 to 3.6 nM. The L24P19C7 probe at 0.5 μM was used to measure [UCBf] in 1% plasma (i.e., 6.2 to 6.8 μM HSA) titrated with UCB (FIG. 2). This probe has the following mutations with reference to rat Intestinal Fatty Acid Binding Protein (SEQ ID NO: 4): Y14R M18L L38V V60R A72L A73F R106C Q115R and Y117D. Without the addition of UCB, all samples yielded a [UCBf] of nearly zero, in good agreement with the 0 to 1 nM [UCBf] expected for a healthy adult. […] Indeed, the increase was consistent with the change in [UCBf] predicted using the equilibrium-binding model, confirming the accuracy of the probe in plasma.

T1 sequence (P02768 25-609): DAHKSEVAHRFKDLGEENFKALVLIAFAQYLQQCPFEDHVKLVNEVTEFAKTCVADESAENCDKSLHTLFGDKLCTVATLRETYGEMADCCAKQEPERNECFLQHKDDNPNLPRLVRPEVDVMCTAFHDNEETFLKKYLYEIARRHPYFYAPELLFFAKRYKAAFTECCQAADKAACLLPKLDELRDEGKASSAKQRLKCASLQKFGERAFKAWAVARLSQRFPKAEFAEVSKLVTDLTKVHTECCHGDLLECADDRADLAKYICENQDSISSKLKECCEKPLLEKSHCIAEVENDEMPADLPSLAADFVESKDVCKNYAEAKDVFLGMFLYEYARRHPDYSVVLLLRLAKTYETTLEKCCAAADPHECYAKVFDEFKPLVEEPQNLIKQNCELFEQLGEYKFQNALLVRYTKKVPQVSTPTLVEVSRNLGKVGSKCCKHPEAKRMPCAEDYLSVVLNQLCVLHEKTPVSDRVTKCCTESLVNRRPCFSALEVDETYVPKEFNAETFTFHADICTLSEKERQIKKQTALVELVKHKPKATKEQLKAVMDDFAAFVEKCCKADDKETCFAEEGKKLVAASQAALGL

As for `C=CC1=C(C)/C(=C/c2[nH]c(Cc3[nH]c(/C=C4\NC(=O)C(C)=C4C=C)c(C)c3CCC(=O)O)c(CCC(=O)O)c2C)NC1=O` [UCB, unconjugated bilirubin], the equilibrium dissociation constant (Kd) is 0.019 µM.

Broadly, the Kd is the constant that tells how readily two partners part at equilibrium.
